Values quoted from earlier work, collected in patent publication US20230046278A1, “METHOD FOR COLOURING KERATIN MATERIAL, COMPRISING THE USE OF AN ORGANIC C1-C6 ALKOXYSILANE AND TWO STRUCTURALLY DIFFERENT CELLULOSE TYPES” (Henkel AG & Co. KGaA, priority 2019, published 2023).
Converted amounts (≈) assume the structure as drawn.

Settings: 25° C.

Row | SMILES | solubility in water | also measured
1 | CCN(Cc1cccc(S(=O)(=O)O)c1)c1ccc(C(=C2C=CC(=[N+](CC)Cc3cccc(S(=O)(=O)O)c3)C=C2)c2ccccc2S(=O)(=O)[O-])cc1 [Acid Blue 9] |  | water solubility: greater than 20 % by weight
2 | Nc1cc(S(=O)(=O)O)cc2cc(S(=O)(=O)O)c(N=Nc3ccccc3)c(O)c12 [Acid Red 33, 5-amino-4-hydroxy-3-(phenylazo)-naphthalene-2,7-disulphonate] | 2500 µg/mL (≈ 5.9 mM) | 
3 | O=S(=O)(O)c1ccc(N=Nc2c(O)ccc3ccccc23)cc1 [Acid Orange 7, 4-[(2-hydroxy-1-naphthyl)azo]benzenesulfonate] | more than 7 g/L | 
4 | O=C(O)C1=NN(c2ccc(S(=O)(=O)O)cc2)C(=O)C1N=Nc1ccc(S(=O)(=O)O)cc1 (centres unmarked) [Acid Yellow 23, 4,5-dihydro-5-oxo-1-(4-sulfophenyl)-4-((4-sulfophenyl)azo)-1H-pyrazole-3-carboxylic acid] |  | solubility in water (in words): readily soluble
5 | O=[N+]([O-])c1cc([N+](=O)[O-])c2ccc(S(=O)(=O)O)cc2c1O [Acid Yellow 9, 8-hydroxy-5,7-dinitro-2-naphthalenesulfonic acid] | above 40 g/L | 
